Source: the Kinase Knowledgebase extract (Sharma et al. 2016)
One block for each molecule: values may come before it.

Tests used:
CDK2;CDK1 = CDK2;CDK1 (UniProt P24941); assay: Cell-Based Assay
EGFR (human) [1] = biological target: EGFR (human) (UniProt P00533); details: f/l herc cells
EGFR [2] = biological target: EGFR (UniProt P00533)
EGFR [3] = biological target: EGFR (UniProt P00533); remark: listed apart in the source
MAPK14 [4] = biological target: MAPK14 (UniProt Q16539); assay: p38 Binding Asssy
Sequence of MAPK14 (Q16539 whole entry, looked up): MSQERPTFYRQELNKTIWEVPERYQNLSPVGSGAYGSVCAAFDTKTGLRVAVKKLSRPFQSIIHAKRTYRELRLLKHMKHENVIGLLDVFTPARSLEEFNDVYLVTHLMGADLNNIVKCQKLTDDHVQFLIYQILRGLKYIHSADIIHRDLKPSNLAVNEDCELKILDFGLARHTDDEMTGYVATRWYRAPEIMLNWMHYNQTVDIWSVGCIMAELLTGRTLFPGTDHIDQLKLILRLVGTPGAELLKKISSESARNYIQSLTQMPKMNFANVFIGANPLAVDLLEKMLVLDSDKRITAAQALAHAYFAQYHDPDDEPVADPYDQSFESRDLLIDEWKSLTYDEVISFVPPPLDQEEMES

EGFR [5] = biological target: EGFR (UniProt P00533); remark: listed apart in the source
EGFR [6] = biological target: EGFR (UniProt P00533); remark: listed apart in the source
EGFR [7] = biological target: EGFR (UniProt P00533); remark: listed apart in the source
EGFR [8] = biological target: EGFR (UniProt P00533); remark: listed apart in the source
CDK2 [9] = biological target: CDK2 (UniProt P24941); assay: Enzyme Assay; details: concentration not given here
CDK2 [10] = biological target: CDK2 (UniProt P24941); assay: Enzyme Assay; details: concentration not given here; remark: listed apart in the source
EGFR (mouse) [11] = biological target: EGFR (mouse) (UniProt P00533); details: nih3t3/c7
ROCK2 = ROCK2 (UniProt O75116); assay: Inhibition of COS cell Derived Rho kinase (ROCKII)
MAP2K1;MAPK14 (human) [12] = biological target: MAP2K1;MAPK14 (human) (UniProt Q16539); assay: Inhibition of BXPC3 Cell Proliferation by MTT Assay; details: bxpc-3 pancreatic
Sequence of MAP2K1;MAPK14 (human) (Q16539 whole entry, looked up): as above

MAP2K1;MAPK14 (human) [13] = biological target: MAP2K1;MAPK14 (human) (UniProt Q16539); assay: Inhibition of LnCAP Cell Proliferation by MTT Assay
MAP2K1;MAPK14 (mice) = assay: Inhibition of LOVO Cell Proliferation by Xenograft Model; details: dose or concentration not given here
EGFR [14] = biological target: EGFR (UniProt P00533); remark: listed apart in the source
PIK3CA [15] = biological target: PIK3CA (UniProt P42336); assay: PIK3CA Inhibition
Sequence of PIK3CA (P42336 whole entry, looked up): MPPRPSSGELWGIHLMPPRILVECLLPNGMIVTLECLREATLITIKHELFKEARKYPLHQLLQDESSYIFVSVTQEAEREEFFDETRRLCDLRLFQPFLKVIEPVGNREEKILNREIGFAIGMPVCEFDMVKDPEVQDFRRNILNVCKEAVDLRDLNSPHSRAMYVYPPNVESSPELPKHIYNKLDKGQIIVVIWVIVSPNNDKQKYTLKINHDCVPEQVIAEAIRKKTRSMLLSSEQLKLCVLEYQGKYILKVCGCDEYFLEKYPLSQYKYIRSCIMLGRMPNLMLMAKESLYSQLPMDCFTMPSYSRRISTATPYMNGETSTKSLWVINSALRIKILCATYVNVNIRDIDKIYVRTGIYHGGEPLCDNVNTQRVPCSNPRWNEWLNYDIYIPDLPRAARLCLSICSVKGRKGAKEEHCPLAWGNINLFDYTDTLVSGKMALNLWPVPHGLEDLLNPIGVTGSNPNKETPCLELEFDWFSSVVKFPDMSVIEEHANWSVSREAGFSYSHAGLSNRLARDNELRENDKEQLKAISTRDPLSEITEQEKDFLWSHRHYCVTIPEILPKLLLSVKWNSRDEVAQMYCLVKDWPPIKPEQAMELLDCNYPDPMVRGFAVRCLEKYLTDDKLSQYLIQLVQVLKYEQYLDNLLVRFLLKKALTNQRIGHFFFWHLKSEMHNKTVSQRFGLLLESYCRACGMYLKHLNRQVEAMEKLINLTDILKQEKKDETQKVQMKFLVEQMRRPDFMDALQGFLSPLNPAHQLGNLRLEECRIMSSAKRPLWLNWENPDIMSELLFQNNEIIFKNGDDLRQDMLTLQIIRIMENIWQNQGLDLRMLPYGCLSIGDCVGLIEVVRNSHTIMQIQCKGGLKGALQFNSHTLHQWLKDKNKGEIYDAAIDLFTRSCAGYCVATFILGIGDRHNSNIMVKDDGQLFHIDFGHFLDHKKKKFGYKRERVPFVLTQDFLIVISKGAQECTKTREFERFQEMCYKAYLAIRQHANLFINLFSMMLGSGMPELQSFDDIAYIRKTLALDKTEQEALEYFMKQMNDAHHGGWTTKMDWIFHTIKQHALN

MAPK14 [16] = biological target: MAPK14 (UniProt Q16539); assay: Inhibition of MAPK Activity
EGFR [17] = biological target: EGFR (UniProt P00533); remark: listed apart in the source
EGFR (mouse) [18] = biological target: EGFR (mouse) (UniProt P00533); details: swiss 3t3 fibroblast
EGFR [19] = biological target: EGFR (UniProt P00533); remark: listed apart in the source
EGFR [20] = biological target: EGFR (UniProt P00533); remark: listed apart in the source
EGFR (murine) [21] = biological target: EGFR (murine) (UniProt P00533); details: nih3t3
Sequence of EGFR (murine) (P00533 whole entry, looked up): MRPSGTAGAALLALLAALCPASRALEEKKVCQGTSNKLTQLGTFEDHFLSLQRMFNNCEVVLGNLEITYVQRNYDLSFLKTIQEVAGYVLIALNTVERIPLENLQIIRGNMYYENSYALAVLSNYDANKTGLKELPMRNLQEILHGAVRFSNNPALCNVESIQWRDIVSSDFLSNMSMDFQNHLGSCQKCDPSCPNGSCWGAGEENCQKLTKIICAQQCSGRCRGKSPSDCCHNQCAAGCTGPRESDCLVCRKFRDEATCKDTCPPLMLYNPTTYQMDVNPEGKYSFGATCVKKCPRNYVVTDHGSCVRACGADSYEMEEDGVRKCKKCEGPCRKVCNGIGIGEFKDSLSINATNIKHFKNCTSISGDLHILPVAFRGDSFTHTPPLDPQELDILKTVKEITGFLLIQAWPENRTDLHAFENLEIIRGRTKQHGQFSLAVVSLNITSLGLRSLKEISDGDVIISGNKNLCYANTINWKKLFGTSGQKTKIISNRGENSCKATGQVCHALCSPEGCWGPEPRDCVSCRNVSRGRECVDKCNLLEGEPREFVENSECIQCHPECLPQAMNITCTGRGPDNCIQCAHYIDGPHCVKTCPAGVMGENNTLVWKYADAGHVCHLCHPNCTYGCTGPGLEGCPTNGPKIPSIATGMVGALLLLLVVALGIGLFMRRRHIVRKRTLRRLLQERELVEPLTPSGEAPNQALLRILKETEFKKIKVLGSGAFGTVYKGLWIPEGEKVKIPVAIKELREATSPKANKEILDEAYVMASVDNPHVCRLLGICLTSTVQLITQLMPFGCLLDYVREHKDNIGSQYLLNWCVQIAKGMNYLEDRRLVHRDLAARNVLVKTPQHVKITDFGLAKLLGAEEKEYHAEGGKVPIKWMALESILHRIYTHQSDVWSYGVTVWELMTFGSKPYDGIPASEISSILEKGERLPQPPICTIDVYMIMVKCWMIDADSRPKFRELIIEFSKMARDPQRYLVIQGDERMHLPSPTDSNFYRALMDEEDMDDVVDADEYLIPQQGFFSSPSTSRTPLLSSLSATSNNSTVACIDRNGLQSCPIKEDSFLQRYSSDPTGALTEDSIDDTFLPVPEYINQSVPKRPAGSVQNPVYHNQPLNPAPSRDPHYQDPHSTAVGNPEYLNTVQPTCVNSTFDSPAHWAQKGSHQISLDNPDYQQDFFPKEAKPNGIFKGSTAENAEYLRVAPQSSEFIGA

PIK3CA [22] = biological target: PIK3CA (UniProt P42336); assay: Inhibition of PIK3CA Kinase Activity
MAPK14 [23] = biological target: MAPK14 (UniProt Q16539); assay: p38 Inhibition
MAPK14 [24] = biological target: MAPK14 (UniProt Q16539); assay: In Vitro p38 Inhibition
EGFR [25] = biological target: EGFR (UniProt P00533); remark: listed apart in the source
EGFR (human) [26] = biological target: EGFR (human) (UniProt P00533); details: a431
EGFR (murine) [27] = biological target: EGFR (murine) (UniProt P00533); details: nih3t3; remark: listed apart in the source
EGFR (human) [28] = biological target: EGFR (human) (UniProt P00533); details: A431
EGFR (murine) [29] = biological target: EGFR (murine) (UniProt P00533); details: f/l-herc
EGFR (murine) [30] = biological target: EGFR (murine) (UniProt P00533); details: f/l-herc; remark: listed apart in the source
EGFR (human) [31] = biological target: EGFR (human) (UniProt P00533); details: a431; remark: listed apart in the source
EGFR [32] = biological target: EGFR (UniProt P00533); remark: listed apart in the source
EGFR [33] = biological target: EGFR (UniProt P00533); remark: listed apart in the source

Sequence of EGFR (human) (P00533 whole entry, looked up): as above
Sequence of EGFR (P00533 whole entry, looked up): as above

Compound: Cn1cnc2c(OCC3CCCCC3)nc(N)nc21
GI50 (CDK2;CDK1): > 100000 nM

Compound: C=CC(=O)c1ccc2ccccc2c1
IC50 (EGFR [2]): 12500 nM

Compound: Brc1cccc(Nc2ncnc3cc4c(cc23)OCCO4)c1
IC50 (EGFR [7]): 0.006 nM

Compound: C[S+]([O-])c1ccc(-c2nc(-c3ccc(F)cc3)c(-c3ccncc3)[nH]2)cc1 (stereo not drawn)
activity (CDK2 [9]): 91% | activity (CDK2 [10]): 112%

Compound: N=C(N)NC[C@H]1CC[C@H](C(=O)NC2=CC=NC3NN=CC23)CC1 (stereo partly drawn)
IC50 (ROCK2): 470 nM

Compound: CCCCCCCCCCCCCCCCCCOC[C@H](COP(=O)(O)O[C@H]1[C@H](O)[C@@H](O)CC[C@H]1O)OC
IC50 (PIK3CA [15]): 800 nM

Compound: Cc1ccc2[nH]c(SSc3[nH]c4ccc(C)cc4c3CCC(=O)O)c(CCC(=O)O)c2c1
IC50 (EGFR (mouse) [18]): > 50000 nM

Compound: O=C(O)Cc1c(SSc2[nH]c3ccccc3c2CC(=O)O)[nH]c2ccccc12
IC50 (EGFR (mouse) [18]): > 50000 nM

Compound: O=CN/C=C/c1cc(O)ccc1O
IC50 (EGFR [20]): 5000 nM

Compound: CCCCCCCCCCCCCCCC(=O)OC[C@H](COP(=O)(O)O[C@H]1[C@H](O)[C@@H](O)[C@H](O)C[C@H]1O)OC(=O)CCCCCCCCCCCCCCC
IC50 (PIK3CA [15]): 38400 nM

Compound: CN(C)S(=O)(=O)c1ccc2c(c1)/C(=C/C1=CC3=C(CCCC3)C1)C(=O)N2
IC50 (EGFR (murine) [21]): > 100000 nM

Compound: N#CC(C#N)=Cc1cc(O)c(O)c(O)c1
IC50 (EGFR [25]): 50000 nM | Ki (EGFR (human) [26]): 1000 nM

Compound: CC(C)S(=O)(=O)c1csc(NC(=O)Nc2ccc(C(C)(C)C)cc2)c1Cl
IC50 (EGFR (murine) [27]): > 100000 nM

Compound: N#C/C(=C\c1ccc(O)c(O)c1)C(=O)NCCCc1ccccc1
IC50 (EGFR [32]): 700 nM

Compound: C=CC(=O)Nc1cc2c(Nc3cccc(Br)c3)c(C#N)cnc2cc1OC
IC50 (EGFR [33]): 810 nM

Further lines, with some results ahead:

IC50 (EGFR (human) [1]): 17 nM
Compound: CCOC(=O)CN1CCN(C/C=C/C(=O)Nc2cc3c(Nc4ccc(F)c(Cl)c4)ncnc3cc2OCCC2CC2)CC1

IC50 (EGFR [3]): > 500000 nM
Compound: O=C(c1cccc2[nH]ccc12)N1CCC(Cc2ccccc2)CC1

IC50 (MAPK14 [4]): 46 nM
Compound: [N-]=[N+]=Nc1cccc(-c2ncn(CCCNC(=O)c3ccc(I)cc3)c2-c2ccncc2)c1

IC50 (EGFR [5]): > 10000 nM
Compound: Nc1ccc(-c2cc(Nc3ccc(S(N)(=O)=O)cc3)[nH]n2)cc1

IC50 (EGFR [6]): 800 nM
Compound: COc1cccc(-c2cn(-c3ccc(CC(=O)NCCO)cc3)c3ncncc23)c1

IC50 (EGFR [8]): 50 nM
Compound: Cc1cc(C)c(N2CCN(C)CC2)c(C)c1-c1nc(-c2ccncc2)c(-c2ccc(Cl)cc2)[nH]1

IC50 (EGFR (mouse) [11]): > 10000 nM
Compound: Cc1nc2cc3nc(-c4ccccc4)[nH]c3cc2nc1C

IC50 (MAP2K1;MAPK14 (human) [12]): 7 nM | IC50 (MAP2K1;MAPK14 (human) [13]): 45 nM
Compound: CCN1CCN(CCCOc2cc3ncc(C#N)c(Nc4ccc(Sc5nccn5C)c(Cl)c4)c3cc2OC)CC1
T/C (MAP2K1;MAPK14 (mice)): 44%

IC50 (EGFR [14]): 377 nM
Compound: Cc1cc(C(=O)N2CCOCC2)[nH]c1/C=C1/C(=O)Nc2ncnc(Nc3cccc4c3CCC4)c21

IC50 (EGFR [14]): > 20000 nM
Compound: Cc1cc(C(=O)N2CCOCC2)[nH]c1/C=C1/C(=O)Nc2ncnc(N3CCCCC3)c21

IC50 (MAPK14 [16]): 30000 nM
Compound: Cn1cnc2c(NCc3ccccc3)nc(NCCO)nc21

IC50 (EGFR [17]): 8700 nM
Compound: CN1CCN(CCCNc2ncc3cc(-c4c(Cl)cccc4Cl)c(=O)n(C)c3n2)CC1

IC50 (EGFR [19]): 1 nM
Compound: Cc1cccc(Nc2cc(Nc3cccc(N(C)C)c3OCCO)ncn2)c1

IC50 (EGFR [19]): 0.5 nM
Compound: Cn1ccc2cc3c(Nc4cccc(Br)c4)ncnc3cc21

IC50 (PIK3CA [22]): > 50000 nM
Compound: COc1ccc(-c2cc(=O)cc(N3CCOCC3)o2)cc1

IC50 (MAPK14 [23]): > 30000 nM | IC50 (MAPK14 [24]): > 30000 nM
Compound: O=C(CNS(=O)(=O)c1ccc(CNC(=O)c2ccc(Cl)cc2)s1)NCCNc1ncc(C(F)(F)F)cc1Cl

IC50 (EGFR [3]): > 500000 nM
Compound: O=C(c1c[nH]c2ccccc12)N1CCC(Cc2ccccc2)CC1

IC50 (EGFR (human) [28]): 200 nM
Compound: c1ccc(COc2ccc(Nc3ncnc4ccc(-c5ccc(CNCc6cccnc6)o5)cc34)cc2)cc1

IC50 (EGFR (mouse) [11]): > 100000 nM
Compound: Cc1cnc2cc3nc(-c4ccccc4)[nH]c3c(C)c2n1

IC50 (EGFR (murine) [29]): 138 nM | IC50 (EGFR (murine) [30]): > 10000 nM
Compound: CN1C2CC[C@]1(Nc1ncc3ncnc(Nc4ccc(F)c(Cl)c4)c3n1)CC(O)C2 (stereo partly drawn)

IC50 (EGFR (murine) [27]): > 100000 nM
Compound: N#Cc1ccc(NC(=S)Nc2ccc(S(=O)(=O)N3CCCCC3)cc2)cc1

IC50 (EGFR (human) [31]): 77 nM
Compound: Brc1cccc(Nc2ncnc3cc4c(ccn4CCCN4CCOCC4)cc23)c1
